Several values for one entry are separate records, joined by “and”; a condition that tells them apart may be missing. Equal entries are not always repeated.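 Results reflect a 48-hour exposure of cells in 96-well plates to compound at five concentrations. GI50 = concentration required for 50% inhibition of growth. TGI: total growth inhibition.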
Assays:
Test in all cases: inhibition of tumour cell growth, NCI panel, 48 h
HOP-92 NSCLC = tested on: HOP-92 NSCLC
HCC-2998 colon = tested on: HCC-2998 colon
MCF7 breast = tested on: MCF7 breast
CCRF-CEM leukemia = tested on: CCRF-CEM leukemia
SN12C renal = tested on: SN12C renal
DU-145 prostate = tested on: DU-145 prostate
NCI-H522 lung = tested on: NCI-H522 lung
NCI-H460 lung = tested on: NCI-H460 lung
RPMI-8226 leukemia = tested on: RPMI-8226 leukemia
LOX IMVI melanoma = tested on: LOX IMVI melanoma

Structure (SMILES) | GI50 (HOP-92 NSCLC) [µM] | TGI (HOP-92 NSCLC) | GI50 (HCC-2998 colon) [µM] | TGI (HCC-2998 colon) | GI50 (MCF7 breast) [µM] | TGI (MCF7 breast) [µM] | GI50 (CCRF-CEM leukemia) [µM] | TGI (CCRF-CEM leukemia) | GI50 (SN12C renal) [µM] | TGI (SN12C renal) | GI50 (DU-145 prostate) [µM] | TGI (DU-145 prostate) [µM] | GI50 (NCI-H522 lung) [µM] | TGI (NCI-H522 lung) | GI50 (NCI-H460 lung) [µM] | TGI (NCI-H460 lung) | GI50 (RPMI-8226 leukemia) [µM] | TGI (RPMI-8226 leukemia) | GI50 (LOX IMVI melanoma) [µM] | TGI (LOX IMVI melanoma)
C/C=C(\C)C(=O)NC1=CC[C@@]2(C)C(=CCC3C2CC[C@@]2(C)C3CC[C@@H]2C(C)N(C)C)C1=O (some centres undefined) | 1.66 | 14.8 µM | 4.01 | 15.6 µM | 2.79 | 14.2 | 2.58 | 15.3 µM | 4.47 | 22.3 µM | 7.06 | > 59.5 | 7.79 | 24 µM | 2.06 | 4.98 µM | 1.91 | 9.38 µM | 1.63 | 3.58 µM
C=C(C)C(O)CCC1(C)C=Cc2c(c(C)cc3c2[nH]c2ccccc23)O1 (centres undefined) | 10.3 | 25 µM and 22.8 µM | 2.19 | 12.1 µM and 5 µM | – | 26.4 | 4.2 | 25 µM and 16.7 µM | 9.57 | 25 µM and 21.5 µM | – | 25.1 | 3.29 | 11.3 µM and 9.34 µM | 2.33 | 10.6 µM and 5.86 µM | 2.96 | 25 µM and 8.01 µM | 3.12 | 8.4 µM and 12.2 µM
OC(Cc1ccncc1)C(Cl)(Cl)Cl (centres undefined) | 0.109 | > 100 µM | – | – | > 100 | > 100 | 32 | > 100 µM | > 100 | > 100 µM | > 100 | > 100 | > 100 | > 100 µM | > 100 | > 100 µM | 0.0586 | > 100 µM | > 100 | > 100 µM
COc1cc(C(O)CCBr)c(OC)cc1C (centres undefined) | – | > 100 µM | – | – | – | 54.7 | – | > 52.7 µM | – | > 100 µM | – | > 100 | – | > 66.3 µM | – | > 100 µM | – | > 100 µM | – | > 100 µM
N#Cc1ccc(OCc2nc(N)nc(N)c2-c2ccc(Cl)c(Cl)c2)cc1 | 4.6 | > 100 µM | 3.19 | > 100 µM | 2.51 | 34.5 | 2.67 | > 100 µM | 2.79 | > 100 µM | 3.6 | > 100 | 2.97 | 19.9 µM | 0.377 | 14.1 µM | 5.42 | > 100 µM | 0.424 | > 100 µM
Cc1c[n+](=O)c2ccccc2n1[O-] | – | > 100 µM | – | – | – | > 100 | – | > 100 µM | – | > 100 µM | – | > 100 | – | > 100 µM | – | > 100 µM | – | > 100 µM | – | > 100 µM
COC12C=C/C(=C(/C(=O)OCc3cncnc3)C(=O)CCCCCCCCC3(OC)C=C/C(=C(/C(=O)OCc4cncnc4)C(=O)CCCCCCCC1)O3)O2 | 1 | 2.18 µM | 0.821 | 1.61 µM | 0.209 | 2.32 | 0.196 | 3.79 µM | 0.404 | 1.98 µM | 0.5 | 2.55 | 0.137 | 0.408 µM | 0.71 | 1.91 µM | 0.207 | 3.55 µM | 0.155 | 0.524 µM
COc1cc(/C=C\c2cc(OC)c(OC)c(OC)c2)cc(NC(=O)/C=C/c2cc(OC)c(OC)c(OC)c2)c1OC | 4.68 | > 100 µM | > 100 | > 100 µM | 3.49 | > 100 | 2.67 | > 100 µM | 27.6 | > 100 µM | > 100 | > 100 | 2.73 | > 100 µM | 5.39 | > 100 µM | 1.36 | > 100 µM | 4.51 | > 100 µM
Clc1nc(Cl)c2ncn(CC3(Cn4cnc5c(Cl)nc(Cl)nc54)COC3)c2n1 | 0.33 | 0.876 µM | 0.221 | 0.389 µM | 0.188 | 0.428 | 0.221 | 0.471 µM | 0.26 | 0.776 µM | 0.183 | 0.335 | 0.966 | 3.07 µM | 0.222 | 0.447 µM | 1.86 | 59.1 µM | 0.18 | 0.349 µM
N=C1C(c2nc3ccccc3s2)=C(O)CN1c1ccc(F)c(Cl)c1 | 12 | 37.5 µM | 61.7 | > 100 µM | 40.3 | > 100 | 36.8 | > 100 µM | 34.6 | > 100 µM | 36.1 | > 100 | 11.5 | 63.2 µM | 17.5 | > 100 µM | 18.9 | > 100 µM | 20.3 | > 100 µM

Source: PubChem BioAssay (NCI)
